This is an account of results in patent publication US20190201578A1, “Biomaterial Implant” (The Johns Hopkins University, priority 2017, published 2019).

In series [1] the test system is rat cornea wound. As to the kind of experiment: cornea wound healing in the presence of therapeutics. Particulars: for time to heal: wounds 3.5 mm in diameter that normally took 48 hours or more. As for the experimental part: Furthermore, the epithelial wounds were manually made using a biopsy punch. To replicate a more traumatic cornea wound that penetrates both the epithelium and stroma, a Nidek EC-5000 excimer laser was used. The laser settings to obtain circular wounds were 2 mm in diameter and approximately 100 μm deep. We confirmed wound depth using optical coherence tomography (OCT). […] The laser application was performed by first chilling eyes in a saline ice bath prior to wounding, and then applying the laser in 10 second bursts, with 5 second rest in between to minimize laser damage outside the wound. […] The dynamic time course of the electric signal change in the hours after wounding was also similar to that of shallower wounds (see FIG. 9). Normal epithelial wounds 2 mm in diameter heal almost completely in 48 hours. Deep laser wounds took longer to heal than shallow epithelial wounds, but did heal 100% by day 8 (see FIG. 10).
Wounds 3.5 mm in diameter that normally took 48 hours or more to completely heal were healed in 30 hours in the presence of these therapeutics. To ensure that the aminophylline has the same effect on deep wounds as shallow epithelial wounds, wound electric fields were measured using the vibrating probe with and without the presence of 1 and 10 mM aminophylline. FIG. 11 illustrates the presence of aminophylline in the wound.
FIG. 12 illustrates wound healing of a deep wound (100 μm) without and with the presence of 1 mM aminophylline as function of time. In this regard, at 500, deep wound healing with and without the presence of aminophylline are shown. At 520, an OCT image of the control wound is shown. At 540, an OCT image with the presence of aminophylline in the wound is shown.
Furthermore, FIG. 13 illustrates the percentage of wound healing as a function of time for corneas treated with the bioelectric modulator aminophylline (1 mM).

Series [2] has as its system rat cornea wound. As to the kind of experiment: cornea wound electric current and ion flux measured with vibrating probe. The settings on record: for cornea wound electric signal: 10 mM. As for the experimental part: In order to understand corneal wound healing, the spatiotemporal dynamics of rat cornea wound electric currents and ion flux using a vibrating probe were characterized. In particular, measurements of deeper wounds of approximately 100 microns in depth, penetrating the stroma, were analyzed. For both shallow and deep wounds, electric current and ion flux were maximized at the wound edge, minimized at the wound center, and reduced to normal (unwounded) values at a small distance outside the wound. Wound electric current was outward (i.e., outward transient outward flux of potassium which diminished rapidly and therefore appeared to be leakage). Small fluxes of calcium and sodium were also observed. The main ion flux appeared to be a large influx of chloride ions at the wound edge. Time lapse measurements of electric current in the hours after wounding indicate that the wound electric signal was long-lasting and appears to be actively-regulated. The wound electric signal increased rapidly until approximately 40 minutes after wounding and was maintained at a high level for several hours. FIGS. 9 and 10 show time lapse data for both a shallow (normal epithelial) wound and a deep (stromal) wound. In this regard, electric signals for a shallow depth wound and a deep wound were compared.
Furthermore, the epithelial wounds were manually made using a biopsy punch. To replicate a more traumatic cornea wound that penetrates both the epithelium and stroma, a Nidek EC-5000 excimer laser was used. The laser settings to obtain circular wounds were 2 mm in diameter and approximately 100 μm deep. We confirmed wound depth using optical coherence tomography (OCT). […] The laser application was performed by first chilling eyes in a saline ice bath prior to wounding, and then applying the laser in 10 second bursts, with 5 second rest in between to minimize laser damage outside the wound. […]
Wounds 3.5 mm in diameter that normally took 48 hours or more to completely heal were healed in 30 hours in the presence of these therapeutics. To ensure that the aminophylline has the same effect on deep wounds as shallow epithelial wounds, wound electric fields were measured using the vibrating probe with and without the presence of 1 and 10 mM aminophylline. […]
The effects of two distinct rehydrated collagen membranes (with a nominal thickness of 100 μm) on cornea wound electric signal were characterized. […] As the probe was moved away from the source of electric signal, the current detected fell exponentially.
The effect of physical presence of collagen membrane and probe distance from wound edge on the electric signal was tested. The probe was placed in measuring position as close as possible to the wound edge with the collagen membrane, and the electric signal was recorded. […]

For series [3] the following is noted: cited from earlier work.

For `O=C1O[C@H]([C@@H](O)CO)C(O)=C1O` [ascorbic acid], in the series with rat cornea wound [1], the cornea wound healing entry is on record as “significantly enhanced” and the time to heal came to 30 h. Moreover, the “cornea wound electric signal” value in the series on rat cornea wound [2] was “significantly increase”.
On to `Cn1c(=O)c2[nH]cnc2n(C)c1=O` [aminophylline], for which, in the series with rat cornea wound [1], the cornea wound healing entry is on record as “significantly enhanced” and the time to heal came out at 30 h. Further, in the series on rat cornea wound [1] (deep wound 100 μm, 1 mM, FIG. 12), the “wound healing of a deep wound (OCT)” value is “faster than a control”. For the same compound, in the series on rat cornea wound [2], the “chloride flux at the wound” value is given as “significantly increases” and the “cornea wound electric signal” value was “significantly increase”. Also, the wound electric field entry in the series with rat cornea wound [2] (deep wounds, 1 and 10 mM, FIG. 11) is “increase in the wound electric field”. Also, the “log partition (log P) coefficient value” in series [3] is given as −3.03.
